The results in this text go back to ChEMBL document CHEMBL1201862, “PubChem BioAssay data set” (2004).

Each structure is given as a SMILES string. Active and inactive are the calls of the source.

Experiment [1] is described as follows: CellTiter-Glo luminescence survival assay, SW480 colon tumor line, concentration-response curve, half-maximal inhibitory concentration (AID 1117338). It counts as functional.
Experiment [2] can be described thus: rise of 2N DNA cells, HeLa – IC50, dose response (AID 1117349). The experiment is classed as functional, cell-based.
Experiment [3] addresses Nonstructural protein 1 (Influenza A virus, UniProt Q194T2). It counts as functional, Influenza A virus (A/California/07/2009(H1N1)).
Experiment [4] deals with Intestinal-type alkaline phosphatase (Homo sapiens, UniProt P09923). The experiment can be described thus: inhibition of human intestinal alkaline phosphatase – biochemical, dose response (AID 488876). The experiment is classed as functional.
Sequence of Intestinal-type alkaline phosphatase (Homo sapiens, UniProt P09923) (P09923 whole entry): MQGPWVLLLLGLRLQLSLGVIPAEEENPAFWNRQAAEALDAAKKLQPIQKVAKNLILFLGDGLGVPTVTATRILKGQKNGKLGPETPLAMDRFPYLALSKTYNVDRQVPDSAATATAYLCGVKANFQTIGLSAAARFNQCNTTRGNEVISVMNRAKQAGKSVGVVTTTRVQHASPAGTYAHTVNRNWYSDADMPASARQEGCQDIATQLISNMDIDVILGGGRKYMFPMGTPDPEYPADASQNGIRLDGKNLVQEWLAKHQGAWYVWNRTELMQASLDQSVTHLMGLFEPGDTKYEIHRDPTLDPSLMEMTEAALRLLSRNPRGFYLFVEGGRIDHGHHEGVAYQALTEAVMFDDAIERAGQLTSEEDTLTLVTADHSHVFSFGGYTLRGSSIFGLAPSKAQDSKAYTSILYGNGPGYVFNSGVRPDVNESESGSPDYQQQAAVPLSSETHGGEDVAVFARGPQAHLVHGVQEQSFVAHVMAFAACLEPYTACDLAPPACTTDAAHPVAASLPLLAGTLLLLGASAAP
Experiment [5] in a line: cytotoxicity toward HCT116 cells – cell-based, CellTiter-Glo luminescence, IC50, dose response (AID 1117332). It counts as functional. Conditions: HCT-116. On the technique in general: In ATP-based viability assays light output follows the ATP content of the culture.
Experiment [6] concerns Streptococcus sp. 'group A'. The experiment can be described thus: Streptococcus pyogenes SK(-)GAS viability under kanamycin – luminescence, BacTiterGlo, confirmation, counter-screen for streptokinase expression inhibitor project, dose response (AID 1900). The experiment is classed as functional, organism-based. For orientation: Counterscreens check selectivity or assay interference.

The target in experiment [7] is Intestinal-type alkaline phosphatase (Mus musculus, UniProt P24822). Nature of the experiment: PubChem AID 488785. It counts as functional.
Sequence of Intestinal-type alkaline phosphatase (Mus musculus, UniProt P24822) (P24822 whole entry): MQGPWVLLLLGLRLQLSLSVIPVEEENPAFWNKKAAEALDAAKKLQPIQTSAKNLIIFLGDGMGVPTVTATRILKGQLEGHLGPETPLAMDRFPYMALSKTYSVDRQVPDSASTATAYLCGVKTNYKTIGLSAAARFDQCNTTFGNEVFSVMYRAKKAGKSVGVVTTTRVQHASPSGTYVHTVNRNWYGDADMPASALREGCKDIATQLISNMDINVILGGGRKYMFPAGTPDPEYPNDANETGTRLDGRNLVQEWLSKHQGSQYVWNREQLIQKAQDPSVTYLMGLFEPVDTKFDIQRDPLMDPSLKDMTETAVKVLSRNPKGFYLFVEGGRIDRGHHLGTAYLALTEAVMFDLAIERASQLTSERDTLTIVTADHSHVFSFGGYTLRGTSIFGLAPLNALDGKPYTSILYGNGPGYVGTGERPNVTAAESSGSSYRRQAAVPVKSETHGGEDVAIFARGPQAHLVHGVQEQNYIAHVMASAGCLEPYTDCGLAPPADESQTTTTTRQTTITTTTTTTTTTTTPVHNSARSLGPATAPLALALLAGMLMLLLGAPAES
Experiment [8] is described as follows: rise of 4N DNA cells, HeLa – IC50, dose response (AID 1117351). The experiment is classed as functional, cell-based.
Experiment [9] can be described thus: Luminescence Cell-Based Dose Confirmation HTS to Identify Inhibitors of Polyadenylation. The experiment is classed as functional.
Experiment [10] concerns the target Exodeoxyribonuclease V (Escherichia coli (strain K12), UniProt P04993+P07648+P08394). The experiment can be described thus: RecBCD inhibition via phage-restricted bacterial growth – absorbance, V66 E. coli, mutant T4 phage, counter-screen for AddAB inhibitor project, dose response (AID 492957). The experiment is classed as functional, cell-based, Escherichia coli str. K-12 substr. MG1655.

Experiment [11] can be described thus: Counterscreen for AddAB inhibitors: absorbance-based bacterial cell-based high throughput dose response assay for inhibitors of bacterial viability. [Related pubchem assays (depositor defined):AID435030, AID449728, AID449731, AID488942, AID488955, AID488956]. The experiment is classed as functional.
Experiment [12] in a line: RKO cell viability reduction, dose response, CellTiter-Glo luminescence (AID 1117322). It counts as functional.
The nature of experiment [13]: cytotoxicity toward HT-29 cells – cell-based, CellTiter-Glo luminescence, IC50, dose response (AID 1117330). The experiment is classed as functional.
Experiment [14] deals with T1, Alkaline phosphatase, tissue-nonspecific isozyme (Homo sapiens, UniProt P05186).
T1 sequence (P05186 whole entry): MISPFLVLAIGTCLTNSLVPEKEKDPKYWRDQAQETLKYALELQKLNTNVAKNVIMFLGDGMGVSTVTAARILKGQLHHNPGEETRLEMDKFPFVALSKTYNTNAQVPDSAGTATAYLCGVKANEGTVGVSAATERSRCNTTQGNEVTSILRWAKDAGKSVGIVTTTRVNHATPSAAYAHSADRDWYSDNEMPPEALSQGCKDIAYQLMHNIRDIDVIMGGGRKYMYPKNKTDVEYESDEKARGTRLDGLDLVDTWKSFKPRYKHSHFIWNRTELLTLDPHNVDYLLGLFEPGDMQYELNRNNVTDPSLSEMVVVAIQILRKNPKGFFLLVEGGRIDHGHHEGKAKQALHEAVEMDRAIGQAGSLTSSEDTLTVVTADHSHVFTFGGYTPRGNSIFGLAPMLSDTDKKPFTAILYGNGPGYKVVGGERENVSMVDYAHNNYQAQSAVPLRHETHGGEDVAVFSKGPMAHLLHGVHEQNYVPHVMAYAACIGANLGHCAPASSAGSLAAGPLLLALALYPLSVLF
The experiment can be described thus: TNAP enzyme inhibition by screening hits, dose response, selectivity assay for mouse IAP inhibitor project, biochemical, human TNAP, uHTS hits (AID 488906). It counts as functional.

The nature of experiment [15]: Reduced DLD-1 viability, concentration-response, CellTiter-Glo luminescence (AID 1117352). It counts as functional.
The subject of experiment [16] is Streptococcus. The experiment can be described thus: GAS UMAA2166 growth inhibition – luminescence, BacTiterGlo, counter-screen for streptokinase expression inhibitor project, dose response (AID 1915).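 Note: potency for reduction of bacterial viability or growth.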 The experiment is classed as functional, organism-based.
A short description of experiment [17]: cytotoxicity toward Colo320 cells – cell-based, CellTiter-Glo luminescence, IC50, dose response (AID 1117334). Conditions: COLO 320. The experiment is classed as functional.
The target in experiment [18] is T2, Apoptotic protease-activating factor 1 (Homo sapiens, UniProt O14727).
T2 sequence (O14727 whole entry): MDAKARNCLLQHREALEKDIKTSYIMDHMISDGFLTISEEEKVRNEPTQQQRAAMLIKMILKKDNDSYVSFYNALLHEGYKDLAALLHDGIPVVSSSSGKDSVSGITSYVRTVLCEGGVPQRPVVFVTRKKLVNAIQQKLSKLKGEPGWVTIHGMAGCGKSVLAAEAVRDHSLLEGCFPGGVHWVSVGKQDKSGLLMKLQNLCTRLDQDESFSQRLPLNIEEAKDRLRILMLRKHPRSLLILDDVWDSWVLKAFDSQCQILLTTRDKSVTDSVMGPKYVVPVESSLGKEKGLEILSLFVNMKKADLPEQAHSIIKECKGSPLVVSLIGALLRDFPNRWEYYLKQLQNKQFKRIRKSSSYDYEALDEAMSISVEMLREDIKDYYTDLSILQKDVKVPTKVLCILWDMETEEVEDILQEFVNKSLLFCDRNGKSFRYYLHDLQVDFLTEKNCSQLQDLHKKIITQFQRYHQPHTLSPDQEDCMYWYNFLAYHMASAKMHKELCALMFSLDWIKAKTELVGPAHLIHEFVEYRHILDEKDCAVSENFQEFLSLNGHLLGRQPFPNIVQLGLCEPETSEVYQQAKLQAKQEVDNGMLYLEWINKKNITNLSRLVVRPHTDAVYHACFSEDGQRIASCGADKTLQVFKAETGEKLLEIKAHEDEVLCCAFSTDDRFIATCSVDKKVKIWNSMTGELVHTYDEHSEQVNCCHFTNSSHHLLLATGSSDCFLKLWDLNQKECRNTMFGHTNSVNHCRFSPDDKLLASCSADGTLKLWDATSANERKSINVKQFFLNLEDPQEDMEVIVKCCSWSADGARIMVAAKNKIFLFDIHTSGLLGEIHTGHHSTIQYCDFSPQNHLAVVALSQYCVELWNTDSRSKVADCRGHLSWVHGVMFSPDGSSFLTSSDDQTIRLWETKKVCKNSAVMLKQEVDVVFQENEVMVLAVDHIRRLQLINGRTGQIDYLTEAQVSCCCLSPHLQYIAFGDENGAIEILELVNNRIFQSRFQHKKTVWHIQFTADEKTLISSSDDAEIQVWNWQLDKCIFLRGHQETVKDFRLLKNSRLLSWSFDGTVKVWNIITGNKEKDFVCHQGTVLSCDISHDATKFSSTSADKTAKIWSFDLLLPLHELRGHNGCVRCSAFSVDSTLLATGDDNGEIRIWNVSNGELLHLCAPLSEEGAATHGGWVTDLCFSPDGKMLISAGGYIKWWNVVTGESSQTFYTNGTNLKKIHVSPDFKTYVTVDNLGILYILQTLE
It counts as functional.

Experiment [19] addresses FAD-linked sulfhydryl oxidase ALR (Homo sapiens, UniProt P55789). Nature of the experiment: ALR-catalysed DTT oxidation blockers – biochemical, H2O2 detection, luminescence, cherry-pick, dose response (AID 493248).
The nature of experiment [20]: HCT116 cell viability decrease, GSK3B pretreatment – CellTiter-Glo, IC50, dose response (AID 1117339). The experiment is classed as functional. Conditions: HCT-116.
A short description of experiment [21]: SNU-C1 cell viability reduction, dose response, CellTiter-Glo luminescence (AID 1117323). It counts as functional, cell-based.

Sequence of Nonstructural protein 1 (Q194T2 whole entry): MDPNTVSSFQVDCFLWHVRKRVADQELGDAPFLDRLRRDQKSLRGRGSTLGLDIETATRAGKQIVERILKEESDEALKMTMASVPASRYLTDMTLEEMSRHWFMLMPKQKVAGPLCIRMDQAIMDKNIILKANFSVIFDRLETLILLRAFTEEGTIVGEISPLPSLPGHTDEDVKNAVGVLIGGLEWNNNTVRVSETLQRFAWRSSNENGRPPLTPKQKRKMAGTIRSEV
Sequence of FAD-linked sulfhydryl oxidase ALR (P55789 whole entry): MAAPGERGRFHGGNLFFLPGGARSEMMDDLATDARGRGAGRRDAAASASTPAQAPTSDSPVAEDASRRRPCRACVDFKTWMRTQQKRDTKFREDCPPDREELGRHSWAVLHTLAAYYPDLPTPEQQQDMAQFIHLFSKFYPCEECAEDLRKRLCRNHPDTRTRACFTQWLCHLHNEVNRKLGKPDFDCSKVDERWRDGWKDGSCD
Sequence of Exodeoxyribonuclease V (P04993 whole entry): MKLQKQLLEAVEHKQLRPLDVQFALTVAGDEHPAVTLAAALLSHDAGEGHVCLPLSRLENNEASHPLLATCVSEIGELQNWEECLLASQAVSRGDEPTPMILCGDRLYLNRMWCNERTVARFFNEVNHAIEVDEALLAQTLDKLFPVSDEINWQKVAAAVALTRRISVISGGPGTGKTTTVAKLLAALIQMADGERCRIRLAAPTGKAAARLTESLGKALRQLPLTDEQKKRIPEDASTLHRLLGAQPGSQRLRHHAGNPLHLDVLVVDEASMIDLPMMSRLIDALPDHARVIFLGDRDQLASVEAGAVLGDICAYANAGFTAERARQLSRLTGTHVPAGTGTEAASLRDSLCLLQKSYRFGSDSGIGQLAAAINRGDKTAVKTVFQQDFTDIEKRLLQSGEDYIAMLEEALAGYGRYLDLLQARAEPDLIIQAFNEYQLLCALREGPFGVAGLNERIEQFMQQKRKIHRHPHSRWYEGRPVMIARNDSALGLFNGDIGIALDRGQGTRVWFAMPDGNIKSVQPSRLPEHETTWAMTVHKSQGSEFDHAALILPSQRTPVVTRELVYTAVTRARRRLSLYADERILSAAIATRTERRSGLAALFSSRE
Sequence of Exodeoxyribonuclease V (P07648 whole entry): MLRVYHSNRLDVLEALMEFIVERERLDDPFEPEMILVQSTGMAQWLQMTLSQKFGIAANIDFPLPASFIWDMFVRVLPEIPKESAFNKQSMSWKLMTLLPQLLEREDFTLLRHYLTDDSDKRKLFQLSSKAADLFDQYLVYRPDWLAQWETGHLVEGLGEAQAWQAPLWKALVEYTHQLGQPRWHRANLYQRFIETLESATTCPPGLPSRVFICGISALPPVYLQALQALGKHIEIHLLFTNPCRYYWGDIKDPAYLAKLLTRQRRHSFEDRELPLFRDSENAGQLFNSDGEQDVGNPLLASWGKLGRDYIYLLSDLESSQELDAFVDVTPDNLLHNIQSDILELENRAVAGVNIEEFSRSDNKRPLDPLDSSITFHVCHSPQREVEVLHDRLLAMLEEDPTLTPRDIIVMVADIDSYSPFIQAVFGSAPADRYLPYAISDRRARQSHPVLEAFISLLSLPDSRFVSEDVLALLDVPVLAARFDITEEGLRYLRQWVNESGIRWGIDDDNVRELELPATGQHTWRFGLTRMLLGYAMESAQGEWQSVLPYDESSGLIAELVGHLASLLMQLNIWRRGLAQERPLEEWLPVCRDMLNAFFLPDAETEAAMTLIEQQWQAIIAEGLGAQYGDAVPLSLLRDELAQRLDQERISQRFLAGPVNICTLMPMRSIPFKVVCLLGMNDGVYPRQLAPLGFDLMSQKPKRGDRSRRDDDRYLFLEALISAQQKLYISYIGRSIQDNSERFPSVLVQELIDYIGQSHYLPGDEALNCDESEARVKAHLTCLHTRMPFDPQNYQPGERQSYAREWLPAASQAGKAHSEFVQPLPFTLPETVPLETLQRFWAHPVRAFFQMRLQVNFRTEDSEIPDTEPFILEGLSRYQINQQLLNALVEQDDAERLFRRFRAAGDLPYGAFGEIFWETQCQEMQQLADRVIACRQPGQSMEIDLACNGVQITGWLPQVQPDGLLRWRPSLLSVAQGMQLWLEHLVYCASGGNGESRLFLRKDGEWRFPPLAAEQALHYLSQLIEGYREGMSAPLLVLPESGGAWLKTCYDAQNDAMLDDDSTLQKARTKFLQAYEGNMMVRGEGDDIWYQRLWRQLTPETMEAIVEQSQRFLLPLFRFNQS
Sequence of Exodeoxyribonuclease V (P08394 whole entry): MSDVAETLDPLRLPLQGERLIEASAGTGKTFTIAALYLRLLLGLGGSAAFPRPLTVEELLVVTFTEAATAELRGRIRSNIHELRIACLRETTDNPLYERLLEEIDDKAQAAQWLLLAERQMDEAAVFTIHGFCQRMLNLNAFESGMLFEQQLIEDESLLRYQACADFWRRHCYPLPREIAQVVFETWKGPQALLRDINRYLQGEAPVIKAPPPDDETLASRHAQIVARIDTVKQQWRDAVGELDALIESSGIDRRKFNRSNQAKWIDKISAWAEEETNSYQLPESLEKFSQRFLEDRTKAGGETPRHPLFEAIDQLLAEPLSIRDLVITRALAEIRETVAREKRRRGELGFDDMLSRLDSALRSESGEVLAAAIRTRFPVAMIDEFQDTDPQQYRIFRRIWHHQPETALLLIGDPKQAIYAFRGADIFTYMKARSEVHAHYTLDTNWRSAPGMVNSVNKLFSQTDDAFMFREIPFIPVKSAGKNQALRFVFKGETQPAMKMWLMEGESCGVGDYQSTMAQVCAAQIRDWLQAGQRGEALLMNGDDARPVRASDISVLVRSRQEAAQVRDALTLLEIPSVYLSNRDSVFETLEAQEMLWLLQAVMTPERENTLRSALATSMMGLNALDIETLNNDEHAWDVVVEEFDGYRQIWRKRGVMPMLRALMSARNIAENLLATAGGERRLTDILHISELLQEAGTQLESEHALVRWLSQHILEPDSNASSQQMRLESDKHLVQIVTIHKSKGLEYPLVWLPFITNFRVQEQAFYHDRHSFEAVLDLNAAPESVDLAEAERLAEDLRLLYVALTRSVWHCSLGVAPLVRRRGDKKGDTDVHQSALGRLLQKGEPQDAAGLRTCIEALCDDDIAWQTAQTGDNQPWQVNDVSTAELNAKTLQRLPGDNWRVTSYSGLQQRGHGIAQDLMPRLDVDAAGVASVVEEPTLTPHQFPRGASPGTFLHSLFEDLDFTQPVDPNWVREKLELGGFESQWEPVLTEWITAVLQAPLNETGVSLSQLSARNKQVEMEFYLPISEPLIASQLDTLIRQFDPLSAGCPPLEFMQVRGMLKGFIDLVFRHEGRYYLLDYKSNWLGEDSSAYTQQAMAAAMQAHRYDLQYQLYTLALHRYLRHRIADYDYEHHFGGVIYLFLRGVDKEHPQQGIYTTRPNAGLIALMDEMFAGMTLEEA

For orientation: IC50 means the concentration that inhibits the measured activity by half. For orientation: EC50 means the concentration that produces a half-maximal response. Broadly, the AC50 is the concentration giving half of the maximal activity seen. In the case of `CCN1/C(=C/C=C/c2sc3ccccc3[n+]2CC)Sc2ccccc21`, the IC50 was 172 nM (active) in [1]; 8510 nM (inactive) in experiment [2]; 9730 nM (active) in [3]; > 100000 nM (inactive) in [4]; 9.57 nM (active) in experiment [5]; 1550 nM (active) in [7]. Moreover, the IC50 is > 10000 nM (inactive) in experiment [8]; 80900 nM (inactive) in experiment [10]; 99500 nM (inactive) in experiment [11]; 8.98 nM (active) in [12]; 8.38 nM (active) in experiment [13]; 74800 nM (active) in experiment [14]. Also, the IC50 in experiment [15] is 14.8 nM (active); in experiment [17], 562 nM (active); in [18], 20800 nM (active); in experiment [20] it was 8.75 nM (active); in [21], 17.2 nM (active). Also, the EC50 in experiment [6] was 2540 nM (active); in experiment [9] it was 11100 nM (active); in experiment [16] it was 3000 nM (active). Further, the AC50 in [19] is 522 nM (active).
